In ChEMBL document CHEMBL3507680, “University of Dundee, Gates Library screen for HepG2 cell viability” one finds cytotoxicity data, which are given here for 40 molecules.

The data set in a line: Human HepG2 cell viability assay in 384 well format. More on the design: dose 125 nL, time 70.5 hour; cytotoxicity at 70.5 h: concentration not given beside the values. It counts as toxicity, cell-based. Conditions: HepG2 cells, read-out: Inhibition.
With `CC(C)(C)CNS(=O)(=O)C1CS(=O)(=O)c2ccccc21` (stereo not given), the cytotoxicity at 70.5 h is 16.6%.

Turning to `COc1cccc(S(=O)(=O)N2CCCCC2CCN2CCCC2=O)c1` (stereo not given), the cytotoxicity at 70.5 h was -7.04%.

Take `Cc1cc(N2CCOCC(Cc3ccc4[nH]ccc4c3)C2)ncn1` (stereo not given): the cytotoxicity at 70.5 h is -9.7%.

Turning to `COc1ccc(CCC(=O)N2CCCC(n3cncn3)C2)cc1` (stereo not given), the cytotoxicity at 70.5 h was -7.91%.

In the case of `NC(=O)c1c(SCCN2CCOCC2)sc2c(O)cc(=O)[nH]c12`, the cytotoxicity at 70.5 h came to 10.5%.

For the molecule `COc1ccccc1CNC(=O)C(C)N1CC(n2nc(C)cc2C)C1` (stereo not given), the cytotoxicity at 70.5 h was -1.72%.

In the case of `O=C(c1cccc(CO)n1)N1CCOC(c2ccc(Cl)c(Cl)c2)C1` (stereo not given), the cytotoxicity at 70.5 h was -9.7%.

Regarding `CN(C)S(=O)(=O)N(Cc1cscn1)c1ccccc1`, the cytotoxicity at 70.5 h turned out to be 12.4%.

For the molecule `CCc1ccc(C(=O)NC2CCN(c3cnn(C)c3)C2=O)o1` (stereo not given), the cytotoxicity at 70.5 h was -9%.

Regarding `CCc1ccc(CNC(=O)N2CCN(Cc3cc(C)on3)CC2)s1`, the cytotoxicity at 70.5 h was -4.93%.

For the molecule `Cc1ccc(C(=O)N2C[C@H]3CC[C@@H]2CN(S(=O)(=O)N(C)C)C3)c(O)c1`, the cytotoxicity at 70.5 h turned out to be 14.2%.

On to `CC(C)N1CCOC[C@H]1c1nc(-c2ccncc2)c[nH]1`, for which the cytotoxicity at 70.5 h is -1.74%.

As for `CC1C(=O)NCCN1CCOc1ccc(C#N)cc1` (stereo not given), the cytotoxicity at 70.5 h is -21.1%.

For the molecule `CCc1cnc2c(c1NCc1cccc(OC)c1)c(=O)n(C)c(=O)n2C`, the cytotoxicity at 70.5 h amounted to 33.7%.

Consider `Cn1c(C(=O)NC(Cc2ccsc2)c2cccnc2)cc(=O)n(C)c1=O` (stereo not given), for which the cytotoxicity at 70.5 h is -0.464%.

Regarding `Cn1nnnc1SCC1Cc2ccccc2O1` (stereo not given), the cytotoxicity at 70.5 h was found to be 26.1%.

In the case of `C[C@H](NC(=O)N1CCC(Cc2ccccc2)CC1)C(=O)O`, the cytotoxicity at 70.5 h was -12.5%.

`O=C(NCC1CCC1)c1ccc(-n2ccnc2)nn1`: the cytotoxicity at 70.5 h is 5.15%.

Take `CCc1nc(NCCc2nc(C)c(C)s2)c2cnn(C)c2n1`: the cytotoxicity at 70.5 h is -7.53%.

For `Cc1cccc(NC(=O)c2cnc(C3CCCNC3)cn2)n1` (stereo not given), the cytotoxicity at 70.5 h was -2.31%.

Take `CS(=O)(=O)CCCNC(=O)C1(c2cccc(Cl)c2)CC1`: the cytotoxicity at 70.5 h was -12.8%.

Consider `c1cnnc(N2CCCC2CNCc2nc(-c3cccs3)no2)c1` (stereo not given), for which the cytotoxicity at 70.5 h was -15.1%.

In the case of `Cc1cc(C)n(CC2CCCN2C(=O)c2c[nH]c3ncccc23)n1` (stereo not given), the cytotoxicity at 70.5 h stood at 27.2%.

`Cc1nn(C)c(C)c1Cc1nc(N(C)C)no1`: the cytotoxicity at 70.5 h was -0.362%.

With `COc1ccc(S(=O)(=O)Nc2cccnc2-n2cncn2)cc1C`, the cytotoxicity at 70.5 h came out at 0.714%.

On to `CCc1ccc(C(CNC(=O)c2c(C)noc2C)N(C)C)cc1` (stereo not given), for which the cytotoxicity at 70.5 h is 5.58%.

For the molecule `COc1ccccc1N1CCN(C(=O)CCn2nnnc2C)CC1(C)C`, the cytotoxicity at 70.5 h was determined as 19.3%.

On to `O=C(Nc1cnn(CC(=O)N2CCCO2)c1)c1ccccc1`, for which the cytotoxicity at 70.5 h is 8.2%.

Turning to `CCSCC(C)NCc1ccccc1-n1ccnc1` (stereo not given), the cytotoxicity at 70.5 h was -2.53%.

Take `CC1CCCN(CCNC(=O)c2ccn(-c3cccc(F)c3)n2)C1` (stereo not given): the cytotoxicity at 70.5 h was 1.27%.

For `Cn1ccc(C(=O)N2CCOC(c3ccc(C(N)=O)cn3)C2)n1` (stereo not given), the cytotoxicity at 70.5 h was determined as 0.762%.

On to `Cc1nnsc1CN1C[C@H]2CC[C@@H]1CN(Cc1ccc(F)cc1)C2`, for which the cytotoxicity at 70.5 h came out at 27.1%.

In the case of `O=C(C1CC(=O)N(c2n[nH]c3cc(Br)ccc23)C1)N1CCSCC1` (stereo not given), the cytotoxicity at 70.5 h was -9.09%.

Consider `CCn1cnnc1CCNc1nc(C)cc(C)c1C#N`, for which the cytotoxicity at 70.5 h was determined as 27.1%.

As for `Cc1cc(C(=O)N2CCCC2c2nc(C)cc(O)n2)on1` (stereo not given), the cytotoxicity at 70.5 h is -8.09%.

Regarding `O=C(CCN1CCc2cncnc2C1)N1CCc2sccc2C1`, the cytotoxicity at 70.5 h is -1.14%.

Consider `COC(=O)CCCn1ccnc1C(C)c1ccccc1` (stereo not given), for which the cytotoxicity at 70.5 h was -1.4%.

In the case of `COc1ccc(CN2C[C@@H]3CN(Cc4ccoc4)C[C@@H]3C2=O)cc1`, the cytotoxicity at 70.5 h is -6.31%.

For the molecule `Cc1cc(C(=O)N[C@@H]2CCNC[C@H]2O)ccc1Cl`, the cytotoxicity at 70.5 h was -6.34%.

`NC(=O)C1CCCN1CCCc1ccc(Cl)cc1` (stereo not given): the cytotoxicity at 70.5 h was -5.15%.
